Paper PMC7318222, “A Family of Water‐Immiscible, Dipolar Aprotic, Diamide Solvents from Succinic Acid” (Chemsuschem, 2020)

Columns and labels:
PPARα = molecular target: T1, PPARα (Homo sapiens, UniProt Q07869); test: PPARα CALUX reporter gene assay; format: cell-based; design: key: –: no effect observed up to the highest test concentration; details: PC10, 24 h exposure
T1 construct: expression construct for the full-length human receptor under investigation; expressed in transfected cells; host or cells: human U2-OS cells (ATCC HTB-96), stably transfected
T1 sequence (Q07869 1-468): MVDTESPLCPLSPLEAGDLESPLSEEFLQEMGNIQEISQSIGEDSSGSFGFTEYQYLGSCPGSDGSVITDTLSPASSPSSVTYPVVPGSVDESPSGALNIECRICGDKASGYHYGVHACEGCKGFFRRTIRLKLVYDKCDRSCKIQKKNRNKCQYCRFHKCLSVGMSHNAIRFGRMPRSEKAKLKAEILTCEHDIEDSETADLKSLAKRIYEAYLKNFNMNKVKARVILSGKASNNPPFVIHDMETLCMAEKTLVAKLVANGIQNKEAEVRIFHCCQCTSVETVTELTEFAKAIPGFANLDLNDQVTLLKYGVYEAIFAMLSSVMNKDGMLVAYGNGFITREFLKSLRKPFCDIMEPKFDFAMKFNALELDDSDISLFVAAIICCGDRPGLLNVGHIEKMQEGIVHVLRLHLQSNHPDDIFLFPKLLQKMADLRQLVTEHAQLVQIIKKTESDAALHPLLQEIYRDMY
Description: (§1) Succinyl chloride (2 M soln. in dichloromethane), N-methylbutylamine 90%, N-ethylbutylamine 95%, Dibutylamine 99% were purchased from TCI chemicals. K60 silica was purchased from Merck chemicals. Succinic acid ≥99.0%, N-methylpyrrolidinone 99.0%, 1-bromooctane ≥97.0%, 1-methylimidazole 99.0%, iodobenzene 99.9%, methylacrylate 99.9%, palladium(II) acetate ≥99.9% trace metals basis, triethylamine ≥99.0%, trimesic acid 95%, copper(II) nitrate trihydrate ≥99.0%, 2-methylimidazole 99.0%, zinc(II) nitrate hexahydrate ≥99.0%, para-cymene 99.0%, 1,4-dioxane 99.8% (anhydrous), 4-nitroaniline ≥99.0%, 1-octanol ≥99.0%, diglyme ≥99.0%, DMSO-d6 (99.8% D) and chloroform-d (99.8% D) were purchased from Sigma-Aldrich. Toluene ≥99.0%, hexane ≥99.5%, DCM ≥99.5%, chloroform ≥99.5%, DMSO ≥99.0% were purchased from VWR. N,N-diethyl-4-nitroaniline ≥98.0% was purchased from Alfa Aeser. Cyrene was supplied by Circa group. N-butylpyrrolidinone was supplied by Eastman chemicals. N,N-dimethylformamide 99.9% and N,N-dimethylacetamide 99.9% were purchased from Fischer. The flakes of Ultrason® E3020 P Polyarylethersulfone of 55,000 Da were obtained from INGE.BASF, Germany. The CALUX cell lines have been described previously.[1] They are based on human U2-OS cells (ATCC, HTB-96) stably transfected with an expression construct for the full-length human receptor under investigation, and a reporter construct consisting of multimerized responsive elements for the cognate receptor coupled to a minimal promoter element (TATA) and a luciferase gene. Cells were maintained as described previously,[2] using cell culture media and supplements from Fisher Scientific as described in the experimental procedures section. […]
(§2) In vitro reporter gene assays
(§3) The automated CALUX assays were carried out similarly as described earlier,[12] with some adaptations. In brief, the assay was performed in CO2 independent medium (Fisher Scientific, […]
(§4) supplement (Fisher Scientific, 11574466), 10 U/mL penicillin and 10 µg/mL streptomycin. A cell suspension in assay medium was made of 1 × 10^5cells/mL, and white 384-wells plates were seeded with 30 µl cell suspension/well. After 24 h, exposure medium was prepared. A dilution series in 0.5log unit increments of each test compound (in DMSO) was added to a 96-wells plate containing assay medium (2% v/v). Of this exposure mixture, 30 µl was added to the assay plates containing the CALUX cells, resulting in a final DMSO concentration of 1%. Additionally, DMSO blanks and a full dose response curve of the relevant reference compound were included on each plate. All samples were tested in triplicate. The preparation of the compound dilution series as well as the exposure of the cells were performed on a Hamilton StarLET liquid handling robot coupled to a Cytomat incubator.
(§5) Directly after exposure, plates were sealed with non-breathing plate seals (Plate sealer, easy seal transparent; Greiner-Bio-One, 676001). After 24 h the exposure medium was removed using an EL406 washer-dispenser (BioTek) and 10 µl/well triton lysisbuffer was added by the EL406.
Subsequently, the luciferase signal was measured in a luminometer (InfinitePro coupled to a Connect Stacker, both TECAN). In order to be able to detect receptor antagonism, several assays were also performed in antagonistic mode. […]
The luminometer data was analysed as follows; the average of the triplicate wells was determined, and the average blank (DMSO) value was subtracted. […]

TCF = TCF CALUX assay (Wnt signaling); format: cell-based, human; design: key: –: no effect observed up to the highest test concentration; details: cell signaling pathway assay, 24 h exposure
Description: Six of the CALUX assays (TCF through p53) detect activation of several cellular signaling pathways, which are indicative of general stress and acute toxicity, but also a range of more specific types of toxicity, including reproductive toxicity. […]
as §1, with “2-methylimidazole” for “Succinyl chloride (2 M soln. in dichloromethane), N-methylbutylamine 90%, N-ethylbutylamine 95%, Dibutylamine 99% were purchased from TCI chemicals. K60 silica was purchased from Merck chemicals. Succinic acid ≥99.0%, N-methylpyrrolidinone 99.0%, 1-bromooctane ≥97.0%, 1-methylimidazole 99.0%, iodobenzene 99.9%, methylacrylate 99.9%, palladium(II) acetate ≥99.9% trace metals basis, triethylamine ≥99.0%, trimesic acid 95%, copper(II) nitrate trihydrate ≥99.0%, 2-methylimidazole”
as §2, §3, §4, §5
Subsequently, the luciferase signal was measured in a luminometer (InfinitePro coupled to a Connect Stacker, both TECAN). In order to be able to detect receptor antagonism, several assays were also performed in antagonistic mode. The assay procedure was as described above, with the only exception that the EC50 concentration of the reference agonist was present during the exposure.
The luminometer data was analysed as follows; the average of the triplicate wells was determined, and the average blank (DMSO) value was subtracted. […] For antagonist- and cytotoxicity experiments, PC20 values were determined instead, which was defined […]

| SMILES | LEC PPARα (PPARα) | LEC TCF (TCF) |
| --- | --- | --- |
| CCCCN(CCCC)C(=O)CCC(=O)N(CCCC)CCCC [TBSA, N,N,N′,N′‐tetrabutylsuccindiamide] | – | – |
| CCCCN1CCCC1=O [NBP, N‐Butylpyrrolidinone, reference compound] | – | – |
| CN1CCCC1=O [NMP, N‐methyl‐2‐pyrrolidone, reference compound] | – | −2.1 Log M |
| CCCCN(CC)C(=O)CCC(=O)N(CC)CCCC [EBSA, N,N′‐diethyl‐N,N′‐dibutylsuccindiamide] | – | – |
| CCCCN(C)C(=O)CCC(=O)N(C)CCCC [MBSA, N,N′‐dimethyl‐N,N′‐dibutylsuccindiamide] | – | – |
